Measurements published in publication PMC11898701, “Evaluating Therapeutic Efficacy of the Vascular Disrupting Agent OXi8007 Against Kidney Cancer in Mice” (Cancers, 2025).
Read-outs that look alike come from different tables or passages of the source. Marks after values point to notes of the source that are not given here.

Legend:
Renca cells = assay: Renca sulforhodamine B (SRB) assay, cell growth inhibition; format: cell-based; details: Mus musculus, Renca, 48 h
Experimental: In two independent trials of Renca and Renca-luc cells were plated in triplicate at 8000 cells/well into 96-well plates and incubated for 24 h at 37 °C in a humidified incubator with 5% CO2 followed by a 48 h treatment period at ten-fold dilutions of the drug.

[1] = system: orthotopic Renca-luc tumors; assay: Acute response by oxygen-enhanced MSOT; format: in vivo, mouse
Experimental: For the multispectral optoacoustic tomography (MSOT), an iThera InVision 256-TF device with seven wavelengths (700, 730, 760, 780, 800, 820, and 875 nm) was used. Mice were shaved and depilated around the tumor region. The anesthetized mouse (1–2% isoflurane) was placed in the imaging chamber (34 °C) for 10 min to reach thermal equilibrium before imaging a single slice showing the largest cross-section of the tumor. An oxygen gas breathing challenge was performed to assess the dynamic changes in blood oxygenation. Images were generated using ViewMSOT version 4.2 with a back projection-based reconstruction algorithm followed by built-in fluence correction. Oxy- and deoxyhemoglobin were resolved using a linear regression approach.
Oxygen saturation (sO2) maps were analyzed using MATLAB 2022b (MathWorks Inc., Natick, MA, USA), and the images were visualized with Fiji. The percentage of hemoglobin saturation (sO2) was calculated as follows:[…]
Blank pixels represent areas lacking a detectable hemoglobin signal. The average sO2^MSOT was calculated pixelwise in each ROI for the air and oxygen breathing periods as sO2^MSOT (Air) and sO2^MSOT (O2), and the response to the oxygen gas challenge was as follows:∆sO2 = sO2 (O2) − sO2 (Air)(2) […]

[2] = Pharmacokinetic study in Renca-luc tumor-bearing BALB/c mice; format: in vivo, mouse; details: for Tmax / half-life / Cmax: ip; for Cmax: read-out: Cmax
Experimental: Plasma and tissues were harvested at various time points (20 min to 16 h) from Renca-luc tumor-bearing BALB/c male mice following the administration of OXi8007 IP. Mice treated with 250 mg/kg were sacrificed at 20 min (n = 3), 1 h (n = 4), 2 h (n = 4), 4 h (n = 4), 8 h (n = 4), and 16 h (n = 4). Mice were anesthetized, exsanguinated, the tissues were blotted, and then they were weighed and frozen in liquid nitrogen. Homogenized plasma and tissue samples were extracted with acetonitrile with a bead mill; internal standard (CA4 or tri-labeled ^13C-OXi8006) was added to each sample to reach a final concentration of 10 ppb. Samples were centrifuged twice to remove precipitated proteins (16,260× g for 10 min at 4 °C). Clear supernatant was transferred into MS vials, and formic acid was added to a final concentration of 0.1% for LC-MS analysis. […] Mobile phase A consisted of 0.1% v/v formic acid in water, and mobile phase B was acetonitrile, which was mixed by the binary pump with an elution gradient at a flow rate of 0.6 mL/min. Data were analyzed using Xcalibur 4.6 software based on exact masses, and Phoenix WinNonlin 8.5.0 software was used to determine the pharmacokinetic parameters based on a non-compartmental model.

[3] = system: orthotopic Renca-luc tumors; assay: Acute response by dynamic bioluminescence imaging (BLI) and histology; format: in vivo, mouse
Experimental: Anesthesia was induced with 1–3% isoflurane, and the mice were placed on the warmed imaging stage of an IVIS Spectrum® small animal imaging system (Xenogen/PerkinElmer Inc., Waltham, MA, USA) with continuous exposure to 1 to 2% isoflurane, as described previously. On successive occasions, mice were administered 75 µL of D-luciferin (sodium salt; Gold Biotechnology, St. Louis, MO, USA) SC in the fore back neck region as a 40 mg/mL solution in 0.9% saline. The BLI signal was quantified as the total flux using Living Image Software 4.3.7. Fresh luciferin was administered 4 and 24 h after drug administration to reveal acute changes in tumor perfusion.
Acute effects of OXi8007 were examined on Renca-luc tumor-bearing mice using BLI (n = 8) and MSOT (n = 6) by comparing images at the baseline [pre (0 h)] and following OXi8007 administration (IP) at 4 h and 24 h. Dynamic BLI images were acquired every minute over the course of 15–20 min immediately following luciferin injection. For MSOT, the same mice underwent a gas breathing challenge for 5 min in air (21% O2), 7 min in O2 (100% O2), followed by 3 min in air at 0 h, 4 h, and 24 h post-treatment.

Ewing sarcoma = system: Ewing sarcoma; design: method as in PMID 19136249; details: 200 mg/kg twice weekly; cited from earlier work
[4] = male, BALB/c, mouse, in vivo, 250 mg/kg, brain, after OXi8007 250 mg/kg IP
[5] = male, BALB/c, mouse, in vivo, 250 mg/kg, heart, after OXi8007 250 mg/kg IP
[6] = male, BALB/c, mouse, in vivo, 250 mg/kg, left kidney, after OXi8007 250 mg/kg IP
[7] = male, BALB/c, mouse, in vivo, 250 mg/kg, liver, after OXi8007 250 mg/kg IP
[8] = male, BALB/c, mouse, in vivo, 250 mg/kg, lungs, after OXi8007 250 mg/kg IP
[9] = male, BALB/c, mouse, in vivo, 250 mg/kg, plasma, after OXi8007 250 mg/kg IP
[10] = male, BALB/c, mouse, in vivo, 250 mg/kg, spleen, after OXi8007 250 mg/kg IP
[11] = male, BALB/c, mouse, in vivo, 250 mg/kg, tumor and right kidney, after OXi8007 250 mg/kg IP

COc1ccc2c(C(=O)c3cc(OC)c(OC)c(OC)c3)c(-c3ccc(OC)c(OP(=O)(O)O)c3)[nH]c2c1 [OXi8007]
IC50 (Renca cells): 1.45 ± 0.001 µM
Period of vascular hypoxiation to plateau (MSOT) ([1]; 350 mg/kg IP in situ using a catheter, while breathing O2): about 30 min
Time to hypoxiation (photoacoustic imaging) ([1]; after intraperitoneal administration): ≤ 30 min
Concentration in the tumor, molar equivalent ([2]; Renca-luc tumor, from 15 ng/mg): 32 µM
Concentration in the tumor ([2]; Renca-luc tumor, maximum): 15 ng/mg
AUC ([2]; brain, after OXi8007 250 mg/kg IP): 0.11 ng·h/mg
AUC ([2]; heart, after OXi8007 250 mg/kg IP): 1.32 ng·h/mg
AUC ([2]; left kidney, after OXi8007 250 mg/kg IP): 2.05 ng·h/mg
AUC ([2]; liver, after OXi8007 250 mg/kg IP): 12.67 ng·h/mg
AUC ([2]; lungs, after OXi8007 250 mg/kg IP): 2.3 ng·h/mg
concentration at 4 h ([2]; male, BALB/c, mouse, in vivo, 250 mg/kg, plasma, within 4 h after OXi8007 IP): 10 µg/mL
Tmax ([2]; male, BALB/c, mouse, in vivo, 250 mg/kg, Renca-luc tumors, IP administration, read-out: Time to maximum concentration in tumors): ≤ 60 min
half-life [2, 4]: 30.6 min
Cmax [2, 4]: 70 ng/g
Tmax ([2]; male, BALB/c, mouse, in vivo, 250 mg/kg, brain, after OXi8007 250 mg/kg IP, read-out: Tmax (converted)): 60 min
half-life [2, 5]: 36.6 min
Cmax [2, 5]: 1620 ng/g
Tmax ([2]; male, BALB/c, mouse, in vivo, 250 mg/kg, heart, after OXi8007 250 mg/kg IP, read-out: Tmax (converted)): 20 min
half-life [2, 6]: 70.8 min
Cmax [2, 6]: 1400 ng/g
Tmax ([2]; male, BALB/c, mouse, in vivo, 250 mg/kg, left kidney, after OXi8007 250 mg/kg IP, read-out: Tmax (converted)): 20 min
half-life [2, 7]: 66 min
Cmax [2, 7]: 13400 ng/g
Tmax ([2]; male, BALB/c, mouse, in vivo, 250 mg/kg, liver, after OXi8007 250 mg/kg IP, read-out: Tmax (converted)): 20 min
half-life [2, 8]: 42 min
Cmax [2, 8]: 1610 ng/g
Tmax ([2]; male, BALB/c, mouse, in vivo, 250 mg/kg, lungs, after OXi8007 250 mg/kg IP, read-out: Tmax (converted)): 20 min
half-life [2, 9]: 49 min
half-life ([2]; male, BALB/c, mouse, in vivo, 250 mg/kg, plasma, after OXi8007 250 mg/kg IP, Renca-luc tumor-bearing BALB/c mice): 49.2 min
Cmax [2, 9]: 453 µg/mL
Tmax ([2]; male, BALB/c, mouse, in vivo, 250 mg/kg, plasma, after OXi8007 250 mg/kg IP, read-out: Tmax (converted)): 20 min
half-life [2, 10]: 39 min
Cmax [2, 10]: 990 ng/g
Tmax ([2]; male, BALB/c, mouse, in vivo, 250 mg/kg, spleen, after OXi8007 250 mg/kg IP, read-out: Tmax (converted)): 60 min
half-life [2, 11]: 120 min
Cmax [2, 11]: 15000 ng/g
Tmax ([2]; male, BALB/c, mouse, in vivo, 250 mg/kg, tumor and right kidney, after OXi8007 250 mg/kg IP, read-out: Tmax (converted)): 60 min
Plasma concentration ([2]; plasma, maximum, after OXi8007 IP): about 450 µg/mL
AUC ([2]; plasma, after OXi8007 250 mg/kg IP, zero to last quantifiable concentration): 511 ^# h × ng/µL
AUC ([2]; spleen, after OXi8007 250 mg/kg IP): 1.41 ng·h/mg
AUC ([2]; tumor and right kidney, after OXi8007 250 mg/kg IP): 36.31 ng·h/mg
BLI signal relative to baseline ([3]; 4 h after OXi8007 250 mg/kg IP, 8 mice): < 2 % baseline
Histology of tumor ([3]; Renca-luc, within 4 h post-treatment): extensive intratumoral hemorrhage
Vascular shutdown (BLI) ([3]; within 4 h, orthotopic kidney tumors): > 98%
Tumor growth delay (Ewing sarcoma): no tumor growth delay
